Experiments:
recombinant HPK1 protein = target: T1, recombinant HPK1 protein (Homo sapiens, UniProt Q92918); assay: Primary assay of HPK1 enzymatic activity inhibition (ADP-Glo luminescence); format: biochemical; details: recombinant HPK1, MBP substrate, 1 hour at room temperature
T1 construct: purchased Promega V6398
T1 sequence (Q92918 1-346 limits assumed): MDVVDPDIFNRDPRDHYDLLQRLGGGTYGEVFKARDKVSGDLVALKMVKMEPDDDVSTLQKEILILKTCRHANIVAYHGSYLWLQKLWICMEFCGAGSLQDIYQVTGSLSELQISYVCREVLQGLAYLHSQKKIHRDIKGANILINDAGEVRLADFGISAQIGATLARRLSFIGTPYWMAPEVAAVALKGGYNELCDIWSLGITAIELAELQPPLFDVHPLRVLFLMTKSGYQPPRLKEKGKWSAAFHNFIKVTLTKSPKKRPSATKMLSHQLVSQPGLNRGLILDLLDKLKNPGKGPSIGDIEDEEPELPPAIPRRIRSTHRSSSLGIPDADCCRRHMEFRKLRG

Jurkat cells = assay: IL-2 release Jurkat assay (anti-CD3/anti-CD28 stimulation, IL-2 ELISA); format: cell-based, human; details: activation with 400 ng/mL aCD3 + 400 ng/mL aCD28, 24 hours
[1] = Table B: Jurkat, 1.5 μM of tested compounds
[2] = Table C: Jurkat, 6 μM of tested compounds, stimulated vehicle = A
[3] = Table D: Jurkat, 6 μM of tested compounds, stimulated vehicle = B

Row | IC50 (recombinant HPK1 protein) [nM] | SMILES | IL-2, pg/mL stimulated (Jurkat cells; [1]) | IL-2, pg/mL stimulated (Jurkat cells; [2]) | IL-2, pg/mL stimulated (Jurkat cells; [3])
1 | 50 to 200 | CS(=O)(=O)c1ccc(Nc2ncc(C(N)=O)c(N[C@H](CO)c3ccccc3)n2)cc1F [Compound 31, 2-{[3-fluoro-4-(methylsulfonyl)phenyl]amino}-4-{[(1S)-2-hydroxy-1-phenylethyl]amino}pyrimidine-5-carboxamide] | C (25.0 pg/mL≤IL-2<35.0 pg/mL) | – | –
2 | 50 to 200 | CNC(=O)c1cnc(Nc2ccc3c(c2)CCN(C)C3=O)nc1N[C@H](CO)c1ccccc1 [Compound 43, 4-{[(1S)-2-hydroxy-1-phenylethyl]amino}-N-methyl-2-[(2-methyl-1-oxo-1,2,3,4-tetrahydroisoquinolin-6-yl)amino]pyrimidine-5-carboxamide] | D (35.0 pg/mL≤IL-2) | – | –
3 | < 50 | CCOC(=O)c1cnc(Nc2ccc3c(c2)CCNC3=O)nc1N[C@H](CO)c1ccccc1 [Compound 45, Ethyl 4-{[(1S)-2-hydroxy-1-phenylethyl]amino}-2-[(1-oxo-1,2,3,4-tetrahydroisoquinolin-6-yl)amino]pyrimidine-5-carboxylate] | – | B (50 pg/mL≤IL-2<100 pg/mL) | –
4 | < 50 | CCOC(=O)c1cnc(Nc2ccc3c(c2)CCC(=O)N3)nc1N[C@H](CO)c1ccccc1 [Compound 46, Ethyl 4-[[(1S)-2-hydroxy-1-phenyl-ethyl]amino]-2-[(2-oxo-3,4-dihydro-1H-quinolin-6-yl)amino]pyrimidine-5-carboxylate] | – | – | D (150 pg/mL≤IL-2)
5 | 50 to 200 | CCOC(=O)c1cnc(Nc2ccc(C(=O)N(C)C)cc2)nc1N[C@H](CO)c1ccccc1 [Compound 47, Ethyl 2-[4-(dimethylcarbamoyl)anilino]-4-[[(1S)-2-hydroxy-1-phenyl-ethyl]amino]pyrimidine-5-carboxylate] | – | B (50 pg/mL≤IL-2<100 pg/mL) | –
6 | 50 to 200 | CNC(=O)c1cnc(Nc2ccc(S(C)(=O)=O)c(C)c2)nc1N[C@H](CO)c1ccccc1 [Compound 65, 4-{[(1S)-2-hydroxy-1-phenylethyl]amino}-N-methyl-2-{[3-methyl-4-(methylsulfonyl)phenyl]amino}pyrimidine-5-carboxamide] | D (35.0 pg/mL≤IL-2) | – | –
7 | < 50 | CCOC(=O)c1cnc(Nc2ccc(S(C)(=O)=O)cc2)nc1N[C@H](CO)c1ccccc1 [Compound 68, Ethyl 4-{[(1S)-2-hydroxy-1-phenylethyl]amino}-2-{[4-(methylsulfonyl)-phenyl]amino}pyrimidine-5-carboxylate] | D (35.0 pg/mL≤IL-2) | – | –
8 | 200 to 500 | CCOC(=O)c1cnc(Nc2cccc(S(C)(=O)=O)c2)nc1N[C@H](CO)c1ccccc1 [Compound 69] | – | B (50 pg/mL≤IL-2<100 pg/mL) | –
9 | 50 to 200 | CNC(=O)c1cnc(Nc2ccc(F)c(-c3ccccc3)c2)nc1N[C@H](CO)c1ccccc1 [Compound 82, 2-[(6-fluorobiphenyl-3-yl)amino]-4-{[(1S)-2-hydroxy-1-phenylethyl]amino}-N-methylpyrimidine-5-carboxamide] | C (25.0 pg/mL≤IL-2<35.0 pg/mL) | – | –
10 | 50 to 200 | CNC(=O)c1cnc(Nc2ccc(S(C)(=O)=O)c(F)c2)nc1N[C@H](CO)c1ccccc1 [Compound 105, 2-{[3-fluoro-4-(methylsulfonyl)phenyl]amino}-4-{[(1S)-2-hydroxy-1-phenylethyl]amino}-N-methylpyrimidine-5-carboxamide] | C (25.0 pg/mL≤IL-2<35.0 pg/mL) | – | –
11 | < 50 | CCNC(=O)c1cnc(Nc2ccc3c(c2)CCN(C)C3=O)nc1N[C@H](CO)c1ccccc1 [Compound 119, N-ethyl-4-{[(1S)-2-hydroxy-1-phenylethyl]amino}-2-[(2-methyl-1-oxo-1,2,3,4-tetrahydroisoquinolin-6-yl)amino]pyrimidine-5-carboxamide] | D (35.0 pg/mL≤IL-2) | – | –
12 | < 50 | CCOC(=O)c1cnc(Nc2ccc3c(c2)CCN(C)C3=O)nc1N[C@H](CO)c1ccccc1 [Compound 122, Ethyl 4-{[(1S)-2-hydroxy-1-phenylethyl]amino}-2-[(2-methyl-1-oxo-1,2,3,4-tetrahydroisoquinolin-6-yl)amino]pyrimidine-5-carboxylate] | C (25.0 pg/mL≤IL-2<35.0 pg/mL) | – | –
13 | 200 to 500 | CCOC(=O)c1cnc(Nc2ccc(C(=O)N(C)C)c(C)c2)nc1N[C@H](CO)c1ccccc1 [Compound 125, Ethyl 2-[4-(dimethylcarbamoyl)-3-methyl-anilino]-4-[[(1S)-2-hydroxy-1-phenyl-ethyl]amino]pyrimidine-5-carboxylate] | – | – | D (150 pg/mL≤IL-2)
14 | 50 to 200 | CCNC(=O)c1cnc(Nc2ccc(S(C)(=O)=O)c(C)c2)nc1N[C@H](CO)c1ccccc1 [Compound 156, N-ethyl-4-{[(1S)-2-hydroxy-1-phenylethyl]amino}-2-{[3-methyl-4-(methylsulfonyl)phenyl]amino}pyrimidine-5-carboxamide] | C (25.0 pg/mL≤IL-2<35.0 pg/mL) | – | –
15 | 200 to 500 | Cc1cc(Nc2ncc(C(=O)N(C)C)c(N[C@H](CO)c3ccccc3)n2)ccc1S(C)(=O)=O [Compound 157, 4-[[(1S)-2-hydroxy-1-phenyl-ethyl]amino]-N,N-dimethyl-2-(3-methyl-4-methylsulfonyl-anilino)pyrimidine-5-carboxamide] | – | C (100 pg/mL≤IL-2<150 pg/mL) | –
16 | < 50 | CCOC(=O)c1cnc(Nc2ccc(S(C)(=O)=O)c(C)c2)nc1N[C@H](CO)c1ccccc1 [Compound 166, Ethyl 4-{[(1S)-2-hydroxy-1-phenylethyl]amino}-2-{[3-methyl-4-(methylsulfonyl)phenyl]amino}pyrimidine-5-carboxylate] | C (25.0 pg/mL≤IL-2<35.0 pg/mL) | – | –
17 | 200 to 500 | CCOC(=O)c1cnc(Nc2ccc(S(C)(=O)=O)cc2C)nc1N[C@H](CO)c1ccccc1 [Compound 167, Ethyl 4-{[(1S)-2-hydroxy-1-phenylethyl]amino}-2-{[2-methyl-4-(methylsulfonyl)phenyl]amino}pyrimidine-5-carboxylate] | – | B (50 pg/mL≤IL-2<100 pg/mL) | –
18 | 50 to 200 | CCOC(=O)c1cnc(Nc2ccc(S(=O)(=O)CC)cc2)nc1N[C@H](CO)c1ccccc1 [Compound 168, Ethyl 2-{[4-(ethylsulfonyl)phenyl]amino}-4-{[(1S)-2-hydroxy-1-phenylethyl]amino}pyrimidine-5-carboxylate] | – | A (IL-2<50 pg/mL) | –
19 | 200 to 500 | CCNC(=O)c1cnc(Nc2ccc(F)c(-c3ccccc3)c2)nc1N[C@H](CO)c1ccccc1 [Compound 189, N-ethyl-2-[(6-fluorobiphenyl-3-yl)amino]-4-{[(1S)-2-hydroxy-1-phenylethyl]amino}pyrimidine-5-carboxamide] | C (25.0 pg/mL≤IL-2<35.0 pg/mL) | – | –
20 | 200 to 500 | CCOC(=O)c1cnc(Nc2ccc(F)c(-c3ccccc3)c2)nc1N[C@H](CO)c1ccccc1 [Compound 195, Ethyl 2-[(6-fluorobiphenyl-3-yl)amino]-4-{[(1S)-2-hydroxy-1-phenylethyl]amino}pyrimidine-5-carboxylate] | C (25.0 pg/mL≤IL-2<35.0 pg/mL) | – | –
21 | 200 to 500 | CCOC(=O)c1cnc(Nc2ccc(S(C)(=O)=O)c(F)c2)nc1N[C@H](CO)c1ccccc1 [Compound 210, Ethyl 2-{[3-fluoro-4-(methylsulfonyl)phenyl]amino}-4-{[(1S)-2-hydroxy-1-phenylethyl]amino}pyrimidine-5-carboxylate] | D (35.0 pg/mL≤IL-2) | – | –

— patent US20240270699A1, “COMPOUNDS HAVING N-ARYLPYRIMIDIN-2-AMINE DERIVATIVES AS THERAPEUTIC AGENTS” (Lomond Therapeutics, Inc., priority 2021, published 2024)
